Data reported in patent US10328128B2, “Treatment of infection by human enterovirus D68” (priority 2014, dated 2019).
Where two headings read alike, the source gives them in different places.

B1: DAS181: fusion protein of the catalytic domain of A. viscosus sialidase and a human amphiregulin GAG-binding anchoring domain (SEQ ID NOs: 15 and 16) (protein)
chain: MGDHPQATPAPAPDASTELPASMSQAQHLAANTATDNYRIPAITTAPNGDLLISYDERPKDNGNGGSDAPNPNHIVQRRSTDGGKTWSAPTYIHQGTETGKKVGYSDPSYVVDHQTGTIFNFHVKSYDQGWGGSRGGTDPENRGIIQAEVSTSTDNGWTWTHRTITADITKDKPWTARFAASGQGIQIQHGPHAGRLVQQYTIRTAGGAVQAVSVYSDDHGKTWQAGTPIGTGMDENKVVELSDGSLMLNSRASDGSGFRKVAHSTDGGQTWSEPVSDKNLPDSVDNAQIIRAFPNAAPDDPRAKVLLLSHSPNPRPWSRDRGTISMSCDDGASWTTSKVFHEPFVGYTTIAVQSDGSIGLLSEDAHNGADYGGIWYRNFTMNWLGEQCGQKPAKRKKKGGKNGKNRRNRKKKNPGDHPQATPAPAPDASTELPASMSQAQHLAANTATDNYRIPAITTAPNGDLLISYDERPKDNGNGGSDAPNPNHIVQRRSTDGGKTWSAPTYIHQGTETGKKVGYSDPSYVVDHQTGTIFNFHVKSYDQGWGGSRGGTDPENRGIIQAEVSTSTDNGWTWTHRTITADITKDKPWTARFAASGQGIQIQHGPHAGRLVQQYTIRTAGGAVQAVSVYSDDHGKTWQAGTPIGTGMDENKVVELSDGSLMLNSRASDGSGFRKVAHSTDGGQTWSEPVSDKNLPDSVDNAQIIRAFPNAAPDDPRAKVLLLSHSPNPRPWSRDRGTISMSCDDGASWTTSKVFHEPFVGYTTIAVQSDGSIGLLSEDAHNGADYGGIWYRNFTMNWLGEQCGQKPAKRKKKGGKNGKNRRNRKKKNP

Columns and labels:
[1] = system: EV-D68 strain USA-MO/18949; assay: CPE inhibition assay in RD cells; format: cell-based, Human enterovirus D68; conditions: read-out: Mean EC50 ± SD
[2] = system: EV-D68 1962 prototype strain (Fermon); assay: CPE inhibition assay in RD cells; format: cell-based, Human enterovirus D68; conditions: read-out: Mean EC50 ± SD
[3] = system: EV-D68 strain USA-MO/18947; assay: CPE inhibition assay in RD cells; format: cell-based, Human enterovirus D68; conditions: read-out: Mean EC50 ± SD
[4] = system: EV-D68 strain USA-IL/18956; assay: CPE inhibition assay in RD cells; format: cell-based, Human enterovirus D68; conditions: read-out: Mean EC50 ± SD
[5] = system: four EV-D68 strains; assay: microbe, parasite or virus in culture; format: cell-based, Human enterovirus D68; conditions: for activity against EV-D68 strains in words: highest concentration tested 10 μM; for EC50: read-out: EC50 values, range over all four EV-D68 strains
[6] = typical fluoxetine dosing; cited from earlier work
[7] = system: EV-D68 Fermon strain; assay: CPE inhibition assay over a range of virus doses; format: cell-based, Human enterovirus D68; conditions: Enterovirus D, EVD68; Fermon strain, 100-fold virus dose range, five half-log dilutions; upper end printed as >10 μM; data not shown; read-out: EC50 values over a range of virus doses
Experimental: Antiviral activity was assessed in a homogeneous cell-based assay that measured inhibition of viral cytopathic effect in human rhabdomyosarcoma cells (RD; ATCC CCL-136). The viruses included three representative EV-D68 strains from the 2014 outbreak (USA-MO/18947, USA-MO/18949, USA-IL/18956) (Brown et al. 2014. Seven Strains of Enterovirus D68 Detected in the United States during the 2014 Severe Respiratory Disease Outbreak. Genome Announc 2:e01201-01214), as well as the 1962 prototype strain (Fermon) (Schieble et al. 1967. A probable new human picornavirus associated with respiratory diseases. Am J Epidemiol 85:297-310). For the CPE inhibition assay, half-log10 dilutions of drug compound (10 μM to 0.001 μM) were combined with 100 CCID50 (50% cell culture infectious dose) of virus and added to monolayers of RD cells (5000 cells per well) in 384-well, white, flat-bottom microplates. Plates were incubated at 33° C. and 5% CO2 for five days, and cell viability was assessed using ATPLite® (Perkin Elmer, Waltham, Mass.) by adding 15 μL of cell lysis buffer and then 15 μL of substrate solution, following the manufacturer's recommendations.
In both studies, the methods were somewhat different from our approach. […] For the other compounds tested, similar EC50 values were observed across this same dose range. […]

[8] = system: enterovirus D68 strains (EV-D68); assay: DAS181 specific anti-viral assay, text summary over all strains and conditions; format: cell-based, Human enterovirus D68; conditions: all conditions and all enterovirus strains tested
Experimental: (§1) As shown in the Table 2, DAS181 was tested to assess antiviral activity of the compound using a cell-based assay, and using enterovirus D68 strains (EV-D68). In this assay, using four specific EV-D68 strains, the compound was added at different time-points to each of the strains. The three time conditions tested were: (i) DAS181 preincubated with cells for 24 h before virus infection; (ii) DAS181 added simultaneously with virus; and (iii) DAS181 added 4 h post-infection. Fermon, an original prototypic strain, was used as control.

[9] = Sialidase activity with fluorogenic substrate 4-MU-NANA; format: biochemical; conditions: 37° C.
Experimental: The sialidase activity of DAS181 was measured using the fluorogenic substrate 4-methylumbelliferyl-N-acetyl-α-D-neuraminic acid (4-MU-NANA; Sigma). One unit of sialidase is defined as the amount of enzyme that releases 10 nmol of MU from 4-MU-NANA in 10 minutes at 37° C. (50 mM CH3COOH—NaOH buffer, pH 5.5) in a reaction that contains 20 nmol of 4-MU-NANA in a 0.2 ml volume (Potier et al., Anal. Biochem., 94:287-296, 1979). The specific activity of DAS181 was determined to be 1,300 U/mg protein (0.77 μg DAS181 protein per unit of activity).

[10] = system: EV-D68 strain USA-MO/238102; assay: DAS181 specific anti-viral assay, time of addition; format: cell-based, Human enterovirus D68; conditions: read-out: DAS181 Mean EC50 ± SD
Experimental: as §1

[11] = system: EV-D68 strain USA-MO/238121; assay: DAS181 specific anti-viral assay, time of addition; format: cell-based, Human enterovirus D68; conditions: read-out: DAS181 Mean EC50 ± SD
Experimental: as §1

[12] = system: EV-D68 strain Fermon; assay: DAS181 specific anti-viral assay, time of addition; format: cell-based, Human enterovirus D68; conditions: read-out: DAS181 Mean EC50 ± SD
Experimental: as §1

[13] = system: EV-D68 strain USA-IL/238139; assay: DAS181 specific anti-viral assay, time of addition; format: cell-based, Human enterovirus D68; conditions: read-out: DAS181 Mean EC50 ± SD
Experimental: as §1

[14] = Enterovirus D, EVD68, RD, 120 h
[15] = Enterovirus D, EVD68, 120 h, RD cells, 100 CCID50 virus, 33° C., five days, strain USA-MO/18949
[16] = Enterovirus D, EVD68, 120 h, RD cells, 100 CCID50 virus, 33° C., five days, strain Fermon
[17] = Enterovirus D, EVD68, 120 h, RD cells, 100 CCID50 virus, 33° C., five days, strain USA-MO/18947
[18] = Enterovirus D, EVD68, 120 h, RD cells, 100 CCID50 virus, 33° C., five days, strain USA-IL/18956
[19] = RD cells, 100 CCID50 virus, 33° C., five days, strain USA-MO/18949
[20] = RD cells, 100 CCID50 virus, 33° C., five days, strain Fermon
[21] = RD cells, 100 CCID50 virus, 33° C., five days, strain USA-MO/18947
[22] = RD cells, 100 CCID50 virus, 33° C., five days, strain USA-IL/18956
[23] = 24 hr preincubation before infection
[24] = Drug addition 4 hr after infection
[25] = No preincubation (added simultaneously with virus)

Row | Molecule | EC50 [1, 14] | EC50 [2, 14] | EC50 [3, 14] | EC50 [4, 14] | EC50 [1, 15] | EC50 [2, 16] | EC50 [3, 17] | EC50 [4, 18] | other results
1 | NC12CC3CC(CC(C3)C1)C2 [Amantidine] | > 10000 nM | > 10000 nM | > 10000 nM | > 10000 nM | – | – | – | – | –
2 | CCOC(=O)c1c(CSc2ccccc2)n(C)c2cc(Br)c(O)c(CN(C)C)c12 [Arbidol] | > 10000 nM | > 10000 nM | > 10000 nM | > 10000 nM | – | – | – | – | –
3 | NC(=O)c1nc(F)c[nH]c1=O [Favipiravir, favipiravir] | – | – | – | – | > 10000 nM | > 10000 nM | > 10000 nM | > 10000 nM | –
4 | CNCCC(Oc1ccc(C(F)(F)F)cc1)c1ccccc1 (centres unmarked) [Fluoxetine, fluoxetine] | – | – | – | – | – | – | – | – | activity against EV-D68 strains in words ([5]; RD cells): significant activity; maximal plasma levels [6]: < 200 nM
5 | COc1ccc(CC(C)NCC(O)c2ccc(O)c(NC=O)c2)cc1 (centres unmarked) [Formoterol furmarate] | > 10000 nM | > 10000 nM | > 10000 nM | > 10000 nM | – | – | – | – | –
6 | CCC(C)n1ncn(-c2ccc(N3CCN(c4ccc(OCC5COC(Cn6cncn6)(c6ccc(Cl)cc6Cl)O5)cc4)CC3)cc2)c1=O (centres unmarked) [Itraconazole, itraconazole] | – | – | – | – | > 10000 nM | > 10000 nM | > 10000 nM | > 10000 nM | activity against EV-D68 strains in words ([5]; RD cells): failed to inhibit; EC50 [7]: 290 to 10000 nM
7 | OC(c1cc(C(F)(F)F)nc2c(C(F)(F)F)cccc12)C1CCCCN1 (centres unmarked) [Mefloquine, mefloquine] | – | – | – | – | > 10000 nM | > 10000 nM | > 10000 nM | > 10000 nM | –
8 | CC(=O)Oc1ccccc1C(=O)Nc1ncc([N+](=O)[O-])s1 [Nitazoxanide, nitazoxanide] | – | – | – | – | > 10000 nM | > 10000 nM | > 10000 nM | > 10000 nM | –
9 | CCOC(=O)C1=C[C@@H](OC(CC)CC)[C@H](NC(C)=O)[C@@H](N)C1 [Oseltamivir] | > 10000 nM | > 10000 nM | > 10000 nM | > 10000 nM | – | – | – | – | –
10 | COc1ccc(OCc2ccc(COc3c(Cl)cccc3Cl)cc2)c(Cl)c1 [Pocapavir, pocapavir] | – | – | – | – | – | – | – | – | EC50 [1, 19]: > 10000 nM; EC50 [2, 20]: > 10000 nM; EC50 [3, 21]: > 10000 nM; activity against EV-D68 strains in words ([5]; RD cells): inactive; EC50 [4, 22]: > 10000 nM
11 | CCOC(=O)/C=C/[C@H](C[C@@H]1CCNC1=O)NC(=O)[C@@H](CC(=O)[C@@H](NC(=O)c1cc(C)on1)C(C)C)Cc1ccc(F)cc1 [Rupintrivir, rupintrivir] | 1.5 ± 3 nM | 2 ± 0.5 nM | 4.6 ± 1.6 nM | 3.7 ± 7 nM | – | – | – | – | EC50 ([5]; Enterovirus D, EVD68, RD): 1.5 to 5.1 nM
12 | C#CC[C@@H](C(=O)N[C@H](/C=C/C(=O)OCC)C[C@@H]1CCNC1=O)n1cccc(NC(=O)c2cc(C)on2)c1=O [V-7404] | – | – | – | – | 27 ± 8 nM | 3.5 ± 0.6 nM | 26 ± 4 nM | 24 ± 7 nM | EC50 ([5]; Enterovirus D, EVD68, RD): 1.5 to 5.1 nM
13 | B1 | – | – | – | – | – | – | – | – | potency in words [8]: low micromolar potency; EC50 [1, 19]: 2.6 ± 1.2 nM; EC50 [2, 20]: 1.2 ± 0.9 nM; EC50 [3, 21]: 3.6 ± 1.5 nM; EC50 ([5]; RD cells, all four EV-D68 strains): 1.2 to 4 nM; EC50 [4, 22]: 4 ± 1.6 nM; DAS181 protein per unit of activity ([9]; pH 5.5): 0.77 µg; specific activity ([9]; pH 5.5, one unit releases 10 nmol MU in 10 minutes): 1,300 U/mg protein; EC50 [10, 23]: 2 ± 0.1 nM; EC50 [10, 24]: 4.3 ± 0.4 nM; EC50 [10, 25]: 3.6 ± 1.5 nM; EC50 [11, 23]: 2.7 ± 0.4 nM; EC50 [11, 24]: 3.4 ± 1 nM; EC50 [11, 25]: 2.6 ± 1.2 nM; EC50 [12, 23]: 1 ± 0.1 nM; EC50 [12, 24]: 3.6 ± 1.5 nM; EC50 [12, 25]: 1.2 ± 0.9 nM; EC50 [13, 23]: 3.2 ± 1 nM; EC50 [13, 24]: 4 ± 1.2 nM; EC50 [13, 25]: 4 ± 1.6 nM
